The assay has as its target T1, adenosine deaminase (ADA) (Rattus norvegicus, UniProt Q920P6).
T1 construct: native enzyme partially purified from rat joint tissue
T1 sequence (Q920P6 2-352): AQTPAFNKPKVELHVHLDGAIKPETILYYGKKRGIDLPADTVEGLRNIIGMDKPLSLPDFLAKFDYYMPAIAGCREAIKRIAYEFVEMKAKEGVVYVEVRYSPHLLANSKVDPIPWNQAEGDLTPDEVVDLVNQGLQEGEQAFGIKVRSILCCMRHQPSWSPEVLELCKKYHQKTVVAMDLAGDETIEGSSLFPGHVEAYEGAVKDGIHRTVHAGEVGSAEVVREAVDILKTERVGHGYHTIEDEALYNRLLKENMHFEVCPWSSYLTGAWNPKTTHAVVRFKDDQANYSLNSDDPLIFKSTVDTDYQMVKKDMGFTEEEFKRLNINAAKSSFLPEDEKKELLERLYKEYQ
The assay can be described thus: Colorimetric (Giusti) ADA activity assay on partially purified rat joint enzyme; Lineweaver-Burk kinetics. It is filed as biochemical.

Molecules are shown by their SMILES.

The compound `O=c1c(O)c(-c2ccc(O)c(O)c2)oc2cc(O)cc(O)c12` [quercetin] registered an IC50 of 170 µM.

The values above are taken from publication PMC8862293, “Quercetin mitigates rheumatoid arthritis by inhibiting adenosine deaminase in rats” (Molecular Medicine, 2022).
